Measurements as given in PubChem BioAssay AID248 (DTP/NCI, 2004).
Where “and” joins values, the source holds several entries; their conditions need not be identical. Equal entries are not always repeated. Inconclusive results and toxic doses are left out.

Test system: L1210 leukemia ip in BDF1 mice, survival T/C
Test: NCI In Vivo Anticancer Drug Screen. Data for tumor model L1210 Leukemia (intraperitoneal) in B6D2F1 (BDF1) mice
Details: endpoint: mean survival time, higher = longer survival
Method in brief: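 Tumor cells were implanted, animals were treated, and survival was followed. The result divides the treated measurement by the vehicle-control measurement.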

Question: For `NC(=O)c1cn(C2OC(CO)C(O)C2O)c2ncnc(N)c12` (centres undefined), which T/C (dose: 0.1 mg/kg/injection, schedule: Q01DX Z (ip), vehicle: carboxymethylcellulose (CMC)) is on record?
Answer: 123 % of control

Question: What about the T/C (dose: 0.12 mg/kg/injection, schedule: Q01DX009 (ip), vehicle: saline) of the same compound?
Answer: 118 % of control

Question: And the T/C (dose: 0.16 mg/kg/injection, schedule: Q01DX009 (ip), vehicle: saline)?
Answer: 119 % of control

Question: And the T/C (dose: 0.16 mg/kg/injection, schedule: Q#A X034 (ip), vehicle: carboxymethylcellulose (CMC))?
Answer: 116 % of control

Question: And the T/C (dose: 0.19 mg/kg/injection, schedule: Q01DX005 (ip), vehicle: saline)?
Answer: 123 % of control

Question: And the T/C (dose: 0.19 mg/kg/injection, schedule: Q01DX009 (ip), vehicle: saline)?
Answer: 121 % of control

Question: What about the T/C (dose: 0.2 mg/kg/injection, schedule: Q01DX Z (ip), vehicle: carboxymethylcellulose (CMC)) of the same compound?
Answer: 121 % of control

Question: What about the T/C (dose: 0.25 mg/kg/injection, schedule: Q01DX001 (sc), vehicle: saline) of the same compound?
Answer: 100 % of control

Question: And the T/C (dose: 0.32 mg/kg/injection, schedule: Q01DX017 (ip), vehicle: carboxymethylcellulose (CMC))?
Answer: 94 % of control

Question: And the T/C (dose: 0.32 mg/kg/injection, schedule: Q02DX009 (ip), vehicle: carboxymethylcellulose (CMC))?
Answer: 100 % of control

Question: What about the T/C (dose: 0.32 mg/kg/injection, schedule: Q04DX005 (ip), vehicle: carboxymethylcellulose (CMC)) of the same compound?
Answer: 104 % of control

Question: And the T/C (dose: 0.32 mg/kg/injection, schedule: Q#A X034 (ip), vehicle: carboxymethylcellulose (CMC))?
Answer: 104 % of control

Question: What about the T/C (dose: 0.37 mg/kg/injection, schedule: Q01DX009 (ip), vehicle: Klucel (hydroxypropylcellulose) (HPC)) of the same compound?
Answer: 107 % of control

Question: What about the T/C (dose: 0.39 mg/kg/injection, schedule: Q01DX009 (ip), vehicle: saline) of the same compound?
Answer: 108 % of control

Question: What about the T/C (dose: 0.5 mg/kg/injection, schedule: Q01DX001 (sc), vehicle: saline) of the same compound?
Answer: 98 % of control

Question: And the T/C (dose: 0.5 mg/kg/injection, schedule: Q01DX005 (ip), vehicle: saline)?
Answer: 157 % of control

Question: And the T/C (dose: 0.5 mg/kg/injection, schedule: Q01DX010 (oral), vehicle: saline)?
Answer: 97 % of control

Question: What about the T/C (dose: 0.5 mg/kg/injection, schedule: Q## X003 (ip), vehicle: saline) of the same compound?
Answer: 114 % of control

Question: What about the T/C (dose: 0.62 mg/kg/injection, schedule: Q01DX001 (ip), vehicle: carboxymethylcellulose (CMC)) of the same compound?
Answer: 94 % of control

Question: And the T/C (dose: 0.62 mg/kg/injection, schedule: Q01DX017 (ip), vehicle: carboxymethylcellulose (CMC))?
Answer: 105 % of control

Question: And the T/C (dose: 0.62 mg/kg/injection, schedule: Q02DX009 (ip), vehicle: carboxymethylcellulose (CMC))?
Answer: 101 % of control

Question: And the T/C (dose: 0.62 mg/kg/injection, schedule: Q04DX005 (ip), vehicle: carboxymethylcellulose (CMC))?
Answer: 113 % of control

Question: What about the T/C (dose: 0.62 mg/kg/injection, schedule: Q08DX003 (ip), vehicle: carboxymethylcellulose (CMC)) of the same compound?
Answer: 105 % of control

Question: And the T/C (dose: 0.62 mg/kg/injection, schedule: Q#A X034 (ip), vehicle: carboxymethylcellulose (CMC))?
Answer: 101 % of control

Question: And the T/C (dose: 0.65 mg/kg/injection, schedule: Q01DX001 (ip), vehicle: water)?
Answer: 122 % of control

Question: And the T/C (dose: 0.75 mg/kg/injection, schedule: Q01DX009 (ip), vehicle: saline)?
Answer: 112 % of control and 117 % of control

Question: And the T/C (dose: 0.78 mg/kg/injection, schedule: Q01DX009 (ip), vehicle: saline)?
Answer: 108 % of control and 123 % of control

Question: What about the T/C (dose: 0.8 mg/kg/injection, schedule: Q01DX Z (ip), vehicle: water) of the same compound?
Answer: 123 % of control

Question: And the T/C (dose: 1.0 mg/kg/injection, schedule: Q01DX001 (sc), vehicle: saline)?
Answer: 102 % of control and 104 % of control

Question: What about the T/C (dose: 1.0 mg/kg/injection, schedule: Q01DX005 (ip), vehicle: saline) of the same compound?
Answer: 165 % of control

Question: And the T/C (dose: 1.0 mg/kg/injection, schedule: Q01DX006 (iv), vehicle: saline)?
Answer: 111 % of control

Question: What about the T/C (dose: 1.0 mg/kg/injection, schedule: Q01DX010 (oral), vehicle: saline) of the same compound?
Answer: 103 % of control

Question: And the T/C (dose: 1.0 mg/kg/injection, schedule: Q01DX Z (im), vehicle: saline)?
Answer: 109 % of control

Question: And the T/C (dose: 1.0 mg/kg/injection, schedule: Q01DX Z (ip), vehicle: carboxymethylcellulose (CMC))?
Answer: 120 % of control

Question: And the T/C (dose: 1.0 mg/kg/injection, schedule: Q03DX005 (ip), vehicle: other)?
Answer: 162 % of control

Question: And the T/C (dose: 1.0 mg/kg/injection, schedule: Q## X008 (ip), vehicle: saline)?
Answer: 150 % of control

Question: What about the T/C (dose: 1.25 mg/kg/injection, schedule: Q01DX001 (ip), vehicle: carboxymethylcellulose (CMC)) of the same compound?
Answer: 119 % of control

Question: What about the T/C (dose: 1.25 mg/kg/injection, schedule: Q01DX017 (ip), vehicle: carboxymethylcellulose (CMC)) of the same compound?
Answer: 89 % of control

Question: And the T/C (dose: 1.25 mg/kg/injection, schedule: Q02DX009 (ip), vehicle: carboxymethylcellulose (CMC))?
Answer: 103 % of control

Question: And the T/C (dose: 1.25 mg/kg/injection, schedule: Q04DX005 (ip), vehicle: carboxymethylcellulose (CMC))?
Answer: 110 % of control

Question: What about the T/C (dose: 1.25 mg/kg/injection, schedule: Q08DX003 (ip), vehicle: carboxymethylcellulose (CMC)) of the same compound?
Answer: 106 % of control

Question: What about the T/C (dose: 1.5 mg/kg/injection, schedule: Q01DX009 (ip), vehicle: Klucel (hydroxypropylcellulose) (HPC)) of the same compound?
Answer: 98 % of control

Question: What about the T/C (dose: 1.5 mg/kg/injection, schedule: Q01DX009 (ip), vehicle: saline with Tween-80) of the same compound?
Answer: 114 % of control and 118 % of control

Question: What about the T/C (dose: 1.5 mg/kg/injection, schedule: Q01DX009 (ip), vehicle: saline) of the same compound?
Answer: 112 % of control

Question: What about the T/C (dose: 1.5 mg/kg/injection, schedule: Q01DX Z (ip), vehicle: carboxymethylcellulose (CMC)) of the same compound?
Answer: 108 % of control

Question: What about the T/C (dose: 1.5 mg/kg/injection, schedule: Q01DX Z (ip), vehicle: water) of the same compound?
Answer: 101 % of control

Question: And the T/C (dose: 1.56 mg/kg/injection, schedule: Q01DX005 (ip), vehicle: saline)?
Answer: 90 % of control

Question: And the T/C (dose: 1.6 mg/kg/injection, schedule: Q01DX009 (ip), vehicle: saline)?
Answer: 108 % of control

Question: What about the T/C (dose: 1.8 mg/kg/injection, schedule: Q01DX Z (ip), vehicle: water) of the same compound?
Answer: 152 % of control

Question: And the T/C (dose: 2.0 mg/kg/injection, schedule: Q01DX001 (sc), vehicle: saline)?
Answer: 103 % of control and 108 % of control

Question: And the T/C (dose: 2.0 mg/kg/injection, schedule: Q01DX006 (iv), vehicle: saline)?
Answer: 115 % of control

Question: And the T/C (dose: 2.0 mg/kg/injection, schedule: Q01DX009 (ip), vehicle: saline)?
Answer: 96 % of control and 100 % of control

Question: And the T/C (dose: 2.0 mg/kg/injection, schedule: Q01DX010 (oral), vehicle: saline)?
Answer: 104 % of control

Question: And the T/C (dose: 2.0 mg/kg/injection, schedule: Q01DX Z (im), vehicle: saline)?
Answer: 117 % of control

Question: And the T/C (dose: 2.0 mg/kg/injection, schedule: Q01DX Z (ip), vehicle: carboxymethylcellulose (CMC))?
Answer: 105 % of control

Question: And the T/C (dose: 2.0 mg/kg/injection, schedule: Q03DX005 (ip), vehicle: other)?
Answer: 155 % of control

Question: What about the T/C (dose: 2.0 mg/kg/injection, schedule: Q## X003 (ip), vehicle: saline) of the same compound?
Answer: 220 % of control

Question: What about the T/C (dose: 2.0 mg/kg/injection, schedule: Q## X008 (ip), vehicle: saline) of the same compound?
Answer: 157 % of control

Question: And the T/C (dose: 2.0 mg/kg/injection, schedule: Q## X024 (ip), vehicle: saline)?
Answer: 155 % of control

Question: And the T/C (dose: 2.4 mg/kg/injection, schedule: Q01DX009 (ip), vehicle: saline)?
Answer: 96 % of control

Question: And the T/C (dose: 2.5 mg/kg/injection, schedule: Q01DX001 (ip), vehicle: carboxymethylcellulose (CMC))?
Answer: 165 % of control

Question: What about the T/C (dose: 2.5 mg/kg/injection, schedule: Q02DX009 (ip), vehicle: carboxymethylcellulose (CMC)) of the same compound?
Answer: 90 % of control

Question: And the T/C (dose: 2.5 mg/kg/injection, schedule: Q04DX005 (ip), vehicle: carboxymethylcellulose (CMC))?
Answer: 118 % of control

Question: What about the T/C (dose: 2.7 mg/kg/injection, schedule: Q01DX Z (ip), vehicle: water) of the same compound?
Answer: 161 % of control

Question: And the T/C (dose: 3.0 mg/kg/injection, schedule: Q01DX001 (ip), vehicle: water)?
Answer: 157 % of control

Question: What about the T/C (dose: 3.0 mg/kg/injection, schedule: Q01DX009 (ip), vehicle: saline with Tween-80) of the same compound?
Answer: 110 % of control

Question: And the T/C (dose: 3.0 mg/kg/injection, schedule: Q01DX Z (ip), vehicle: water)?
Answer: 104 % of control

Question: And the T/C (dose: 3.0 mg/kg/injection, schedule: Q03DX005 (ip), vehicle: other)?
Answer: 157 % of control and 170 % of control

Question: What about the T/C (dose: 4.0 mg/kg/injection, schedule: Q01DX001 (ip), vehicle: clinical formulation) of the same compound?
Answer: 159 % of control

Question: What about the T/C (dose: 4.0 mg/kg/injection, schedule: Q01DX001 (sc), vehicle: saline) of the same compound?
Answer: 102 % of control and 107 % of control

Question: What about the T/C (dose: 4.0 mg/kg/injection, schedule: Q01DX006 (iv), vehicle: saline) of the same compound?
Answer: 91 % of control

Question: And the T/C (dose: 4.0 mg/kg/injection, schedule: Q01DX010 (oral), vehicle: saline)?
Answer: 101 % of control

Question: And the T/C (dose: 4.0 mg/kg/injection, schedule: Q01DX Z (im), vehicle: saline)?
Answer: 108 % of control

Question: What about the T/C (dose: 4.0 mg/kg/injection, schedule: Q## X008 (ip), vehicle: saline) of the same compound?
Answer: 170 % of control

Question: What about the T/C (dose: 4.0 mg/kg/injection, schedule: Q## X024 (ip), vehicle: saline) of the same compound?
Answer: 97 % of control

Question: What about the T/C (dose: 5.0 mg/kg/injection, schedule: Q01DX001 (ip), vehicle: water) of the same compound?
Answer: 185 % of control

Question: And the T/C (dose: 5.0 mg/kg/injection, schedule: Q01DX001 (oral), vehicle: saline)?
Answer: 102 % of control and 103 % of control

Question: What about the T/C (dose: 5.0 mg/kg/injection, schedule: Q03DX005 (ip), vehicle: other) of the same compound?
Answer: 162 % of control

Question: What about the T/C (dose: 5.0 mg/kg/injection, schedule: Q08DX003 (ip), vehicle: carboxymethylcellulose (CMC)) of the same compound?
Answer: 121 % of control

Question: And the T/C (dose: 8.0 mg/kg/injection, schedule: Q## X003 (ip), vehicle: saline)?
Answer: 109 % of control

Question: What about the T/C (dose: 8.0 mg/kg/injection, schedule: Q## X008 (ip), vehicle: saline) of the same compound?
Answer: 195 % of control

Question: And the T/C (dose: 10.0 mg/kg/injection, schedule: Q01DX001 (oral), vehicle: saline)?
Answer: 105 % of control

Question: What about the T/C (dose: 16.0 mg/kg/injection, schedule: Q01DX001 (ip), vehicle: saline) of the same compound?
Answer: 102 % of control

Question: What about the T/C (dose: 20.0 mg/kg/injection, schedule: Q01DX001 (oral), vehicle: saline) of the same compound?
Answer: 112 % of control
